Reference: patent US20220146526A1, “METHOD FOR EVALUATING SAMPLE, ANALYSIS METHOD, METHOD FOR DETECTING DEGRADED SAMPLE, MARKER FOR DETECTING DEGRADED BLOOD PLASMA SAMPLE, AND MARKER FOR DETECTING DEGRADED SERUM SAMPLE” (SHIMADZU CORPORATION, priority 2019, published 2022)

Experiment: GC/MS of serum sample: time from blood collection to centrifugation (Table G)
Type: physicochemical, human
Conditions: detection intensity relative to 1 at 15 minutes, blood collection to centrifugation, after 4 hours
Experimental: (§1) After standing, the blood sample was subjected to centrifugation under a condition of room temperature, 3500 rpm, and 5 minutes. […] After centrifugation, the blood-collecting vessel was left to stand at room temperature, and the serum was isolated during this time. Here, in order to investigate how the detection intensity of molecules contained in the sample was affected in cases where the time during which the blood-collecting vessel was left at room temperature was set to 1 hour and 6 hours as compared to that in a case where the time was set to 30 minutes, preparations were performed under the respective conditions of 30 minutes, 1 hour, and 6 hours. The obtained serum sample was frozen and stored. Here, in order to investigate how the detection intensity of molecules contained in the sample was affected in cases where freezing and thawing was performed 4 times, 6 times, and 10 times after freezing as compared to that in a case where freezing and thawing was performed 2 times after freezing, freezing and thawing was performed under the respective conditions of 2, 4, 6, and 10 times.
(§2) Frozen blood plasma samples and serum samples were subjected to GC/MS or LC/MS. In GC/MS, the blood plasma samples and serum samples were subjected to methoxymation and trimethylsilylation and then introduced to GC-MS.
GC/MS was conducted using GCMS·TQ8040 (Shimadzu Corporation) that was a GC·MS equipped with AOC·20i (Shimadzu Corporation) as an autosampler.
Column: BPX5 (inner diameter of 0.25 mm, length of 30 m, and film thickness of 0.25 μm) (SGE)
Column temperature: maintained at 60° C. for 2 minutes, then raised at 15° C./min, and maintained at 330° C. for 3 minutes.
Inlet temperature: 250° C.
Carrier gas control mode: constant linear velocity of 39.0 cm/sec
Sample introduction method: split (split ratio of 30:1) Injection volume: 1 μL
Ionization method: electron ionization
Ionization current: 60 μA
Interface temperature: 280° C.
Ion source temperature: 200° C.
(§3) Mode: multiple reaction monitoring (MRM)
The rate of increase or decrease in Table G is the value of detection intensity relative to 1 that is the detection intensity in a case where the time from blood collection to centrifugation is set to 15 minutes.

Question: With CC(=O)NCC(=O)O [Acetylglycine] as the compound, how does the “Rate of increase or decrease” value read?
Answer: 0.68

Same assay, conditions: detection intensity relative to 1 at 15 minutes, blood collection to centrifugation, after 8 hours

Question: For NCCC(=O)O [3-Aminopropionic acid (β-alanine), 3-Aminopropionic acid], which “Rate of increase or decrease” value is on record?
Answer: 1.46

Question: With CC(C)C(=O)C(=O)O [2-Ketoisovaleric acid] as the compound, how does the “Rate of increase or decrease” value read?
Answer: 0.67

Question: Which “Rate of increase or decrease” value does the source give for CCCCCCCCCC(=O)O [Decanoic acid] here?
Answer: 0.69

Question: Which “Rate of increase or decrease” value does the source give for OC[C@@H](O)[C@H](O)[C@@H](O)CO [Xylitol] here?
Answer: 0.62

Question: With O=C(O)CCCC(=O)O [Glutaric acid] as the compound, how does the “Rate of increase or decrease” value read?
Answer: 1.39

Question: With O[C@H]1[C@H](O)[C@@H](O)[C@H](O)[C@@H](O)[C@H]1O [Inositol] as the compound, how does the “Rate of increase or decrease” value read?
Answer: 1.46

Same assay, conditions: detection intensity relative to 1 at 15 minutes, blood collection to centrifugation, after 12 hours

Question: With CC(C)(O)CC(=O)O [3-Hydroxyisovaleric acid] as the compound, how does the “Rate of increase or decrease” value read?
Answer: 1.35

Same assay, conditions: detection intensity, blood collection to centrifugation, after 4 hours vs 15 minutes

Question: For CC(=O)NCC(=O)O [Acetylglycine], which Increase or decrease is on record?
Answer: Decrease

Same assay, conditions: detection intensity, blood collection to centrifugation, after 8 hours vs 15 minutes

Question: For NCCC(=O)O [3-Aminopropionic acid (β-alanine), 3-Aminopropionic acid], which Increase or decrease is on record?
Answer: Increase

Question: With CC(C)C(=O)C(=O)O [2-Ketoisovaleric acid] as the compound, how does the Increase or decrease read?
Answer: Decrease

Question: For CCCCCCCCCC(=O)O [Decanoic acid], which Increase or decrease is on record?
Answer: Decrease

Question: Which Increase or decrease does the source give for OC[C@@H](O)[C@H](O)[C@@H](O)CO [Xylitol] here?
Answer: Decrease

Question: With O=C(O)CCCC(=O)O [Glutaric acid] as the compound, how does the Increase or decrease read?
Answer: Increase

Question: With O[C@H]1[C@H](O)[C@@H](O)[C@H](O)[C@@H](O)[C@H]1O [Inositol] as the compound, how does the Increase or decrease read?
Answer: Increase

Same assay, conditions: detection intensity, blood collection to centrifugation, after 12 hours vs 15 minutes

Question: Which Increase or decrease does the source give for O=C(O)[C@H](O)[C@@H](O)[C@H](O)[C@H](O)CO [Gluconic acid] here?
Answer: Increase

Question: For CC(C)(O)CC(=O)O [3-Hydroxyisovaleric acid], which Increase or decrease is on record?
Answer: Increase

Experiment: LC/MS of serum sample: number of times of freezing and thawing (Table M)
Type: physicochemical, human
Parameters: key to Rate of increase or decrease: detection intensity relative to 1 at 2 freeze-thaw cycles
Conditions: 6 times of freezing and thawing; detection intensity relative to 1 at 2 times
Experimental: as §1, §2
Analysis column: Discovery HS F5-3 (inner diameter of 2.1 mm, length of 150 mm, film thickness of 3 μm) (Sigma-Aldrich)
Column temperature: 40° C.
(A) 0.1% formic acid (dissolved in water)
(B) 0.1% formic acid (dissolved in acetonitrile)
Flow velocity: 0.25 mL/min
Ionization method: electrospray
Temperature: • Desolvation Line (DL) temperature: 250° C. • Heat block temperature: 400° C. • Interface temperature: 300° C.
Gas flow rate: • Nebulizer gas flow rate: 3.0 L/min • Drying gas flow rate: 10.0 L/min • Heating gas flow rate: 10.0 L/min
as §3
The rate of increase or decrease in Table M is the value of detection intensity relative to 1 that is the detection intensity in a case where the number of times of freezing and thawing is set to 2 times.

Question: Which “Rate of increase or decrease” value does the source give for CSCC[C@H](N)C(=O)O [Methionine, methionine] here?
Answer: 0.69

Question: With N[C@@H](Cc1ccc(O)cc1)C(=O)O [Tyrosine, tyrosine] as the compound, how does the “Rate of increase or decrease” value read?
Answer: 0.60

Same assay, conditions: 6 times of freezing and thawing; relative to 1 at 2 times; different from individual to individual, first value (increase)

Question: With C[C@@H](O)[C@H](N)C(=O)O [Threonine, threonine] as the compound, how does the “Rate of increase or decrease” value read?
Answer: 1.31

Same assay, conditions: 6 times of freezing and thawing; relative to 1 at 2 times; different from individual to individual, second value (decrease)

Question: With C[C@@H](O)[C@H](N)C(=O)O [Threonine, threonine] as the compound, how does the “Rate of increase or decrease” value read?
Answer: 0.69

Same assay, conditions: 10 times of freezing and thawing; detection intensity relative to 1 at 2 times

Question: Which “Rate of increase or decrease” value does the source give for N[C@@H](Cc1ccccc1)C(=O)O [Phenylalanine, phenylalanine] here?
Answer: 0.57

Question: With CC(C)[C@H](N)C(=O)O [Valine, valine] as the compound, how does the “Rate of increase or decrease” value read?
Answer: 0.56

Same assay, conditions: serum sample, LC/MS; detection intensity changed by 30% or more vs 2 times of freezing and thawing

Question: With N[C@@H](Cc1ccccc1)C(=O)O [Phenylalanine, phenylalanine] as the compound, how does the “Number of times when compound is affected” value (“Number of times” below) read?
Answer: 10 times

Question: With CC(C)[C@H](N)C(=O)O [Valine, valine] as the compound, how does the “Number of times” value read?
Answer: 10 times

Question: Which “Number of times” value does the source give for CSCC[C@H](N)C(=O)O [Methionine, methionine] here?
Answer: 6 times

Question: For C[C@@H](O)[C@H](N)C(=O)O [Threonine, threonine], which “Number of times” value is on record?
Answer: 6 times

Question: With N[C@@H](Cc1ccc(O)cc1)C(=O)O [Tyrosine, tyrosine] as the compound, how does the “Number of times” value read?
Answer: 6 times

Same assay, conditions: serum sample, LC/MS; detection intensity vs 2 times of freezing and thawing

Question: For N[C@@H](Cc1ccccc1)C(=O)O [Phenylalanine, phenylalanine], which Increase or decrease is on record?
Answer: Decrease

Question: For CC(C)[C@H](N)C(=O)O [Valine, valine], which Increase or decrease is on record?
Answer: Decrease

Question: With CSCC[C@H](N)C(=O)O [Methionine, methionine] as the compound, how does the Increase or decrease read?
Answer: Decrease

Question: Which Increase or decrease does the source give for C[C@@H](O)[C@H](N)C(=O)O [Threonine, threonine] here?
Answer: Different from individual

Question: With N[C@@H](Cc1ccc(O)cc1)C(=O)O [Tyrosine, tyrosine] as the compound, how does the Increase or decrease read?
Answer: Decrease
